Results taken from US9309547B2, “Methods for making tocoflexols and analogues thereof” (The Board of Trustees of the University of Arkansas, priority 2012, dated 2016).
Values joined by “and” are separate entries in the source; they are usually repeats but may differ in a detail not shown here. Equal values may be shown once.

What was measured:
rat liver microsomes = assay: Inhibition of lipid peroxidation in rat liver microsomes treated with TBHP; assay type: biochemical, Wistar rat; conditions: FIG. 2; for IC50: 1 mg/ml microsomal protein, 37° C. 1 hour preincubation, 200 μM TBHP for 30 min
Experimental: One of the most well-known properties of the vitamin E components is their ability to prevent lipid peroxidation. See Traber et al. (2011) Free Radis Biol Med 51(5):1000-1013. Briefly, the antioxidant activity of vitamin E analogs was evaluated in rat liver microsomes by measuring inhibition of lipid peroxidation after TBHP ([…]) treatment. Wistar rat liver microsomes (BD Biosciences) were diluted in phosphate buffer, 0.1 M (pH 7.4), at the final protein concentration of 1 mg/ml. The microsomes were treated with different concentrations of tocols (diluted with DMSO) and incubated at 37° C. for 1 hour before inducing lipid peroxidation with 200 μM TBHP (DMSO) for 30 min.

Mouse NSC 34 cells = assay: Cell uptake of tocols by NSC 34 cells (GC/MS); assay type: cell-based; conditions: final concentration 5 μM, 0-24 hours, FIG. 1
Experimental: The experiment was carried out as described below. Mouse NSC 34 cells were grown in Dulbecco's modified Eagle's medium (DMEM) supplemented with 10% fetal bovine serum and 1% penicillin/streptomycin at 37° C. in a humidified atmosphere containing 95% air and 5% CO2. The cell culture medium was replaced every 2 or 3 days with fresh medium containing serum and antibiotic. Cells were reseeded when the cell monolayers became confluent. For the experiments, cells at passages 15-27 were seeded in 6-well plates at 1 million cells per well. 5 mM test solutions were prepared in DMSO. NSC 34 monolayers above 80% confluency were treated with 2 μl of test compound (final concentration 5 μM) for 0, 1, 2, 4, 8, 12, and 24 hours. […] Hexane extracts were dried under nitrogen and were quantitatively transferred to a deactivated glass micro insert using methylene chloride and dried under nitrogen. […] Protein concentration was determined using the Pierce BCA protein assay kit. The derivatized samples were analyzed using GC/MS by single ion monitoring (Agilent 5975 GC/MSD; Agilent Technologies, Palo Alto, Calif.). […] Samples were analyzed using helium as the carrier gas (head pressure of 27 psi), 1 μl splitless injection, the injector temperature was 275° C., the column temperature was maintained at 220° C. for 2 min followed by a gradient of 25° C./min to 300° C., and remained at that temperature for 10 min. […]

IC50 (rat liver microsomes) [µM] | cell-uptake compared with that of α-tocopherol (Mouse NSC 34 cells) | SMILES | antioxidant potential, times that of α-tocopherol (AT) (rat liver microsomes; rat liver microsomes treated with 200 μM TBHP)
6.78 |  | Cc1c(C)c2c(c(C)c1O)CC[C@@](C)(CCC[C@H](C)CCC[C@H](C)CCCC(C)C)O2 [AT, α-tocopherol, reference compound] | 
1.35 | almost double | CC(C)=CCC[C@@H](C)CCC/C(C)=C/CC[C@]1(C)CCc2cc(O)cc(C)c2O1 [δ-tocoflexol, (2R,8′S)-δ-tocoflexol] | > 5 times and 5 times
